Experimental data from patent US12171782B2 (priority 2020, dated 2024).

Key:
SARS-CoV PLP = SARS-CoV PLP (Severe acute respiratory syndrome coronavirus, UniProt P0C6X7); settings: cited from earlier work
3CLPro/Mpro of SARS-CoV = 3CLPro/Mpro of SARS-CoV (Severe acute respiratory syndrome coronavirus, UniProt P0C6X7); settings: cited from earlier work
SARS-CoV N protein = SARS-CoV N protein (Severe acute respiratory syndrome coronavirus, UniProt P59595); settings: cited from earlier work
[1] = target: 3CLpro from the first SARS-CoV (Severe acute respiratory syndrome coronavirus, UniProt P0C6X7); settings: cited from earlier work
PLP of SARS-CoV-2 = PLP of SARS-CoV-2 (Severe acute respiratory syndrome coronavirus 2, UniProt P0DTD1); settings: cited from earlier work
[2] = tested on: SARS-CoV-2 pseudotyped lentiviral vectors; settings: blocked entry of pseudotyped lentiviral vectors; cited from earlier work
[3] = tested on: SARS-CoV-2 replicating virus in Vero cells; settings: virus replication; cited from earlier work
SARS-CoV-2 strain = settings: plaque reduction neutralization test; read-out: PRNT50; cited from earlier work
[4] = tested on: peripheral blood mononuclear cells (PBMC); experiment: MTT cytotoxicity assay in PBMCs; settings: different concentrations, 24 h (FIG. 17)
common cold = settings: after 7 days of treatment, 23 mg; placebo 46%; cited from earlier work

SARS-CoV N protein, sequence (P59595 whole entry, looked up): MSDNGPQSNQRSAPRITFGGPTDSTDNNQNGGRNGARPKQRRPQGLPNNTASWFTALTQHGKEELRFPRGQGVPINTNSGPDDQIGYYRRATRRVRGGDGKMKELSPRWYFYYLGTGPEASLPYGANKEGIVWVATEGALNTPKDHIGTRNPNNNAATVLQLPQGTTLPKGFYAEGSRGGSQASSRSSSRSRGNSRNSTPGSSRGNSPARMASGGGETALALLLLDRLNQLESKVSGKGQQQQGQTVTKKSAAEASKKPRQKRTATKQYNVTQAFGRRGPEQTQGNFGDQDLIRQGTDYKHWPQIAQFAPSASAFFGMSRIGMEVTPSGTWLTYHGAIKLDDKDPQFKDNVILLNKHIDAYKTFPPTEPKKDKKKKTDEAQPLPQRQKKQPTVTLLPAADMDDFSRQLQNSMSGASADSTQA

For `[Ca+2]` [Ca], the “effects on the activity of PLP” value (SARS-CoV PLP) is listed as “no effects”.

In the case of `[Co+2]` [Co], the “effects on the activity of PLP” value (SARS-CoV PLP) is listed as “no effects”.

In the case of `[Mg]` [Mg], the “effects on the activity of PLP” value (SARS-CoV PLP) is listed as “no effects”.

For `[Mn]` [Mn], the “effects on the activity of PLP” value (SARS-CoV PLP) is given as “no effects”.

For `[Ni]` [Ni], the “effects on the activity of PLP” value (SARS-CoV PLP) is given as “no effects”.

In the case of `[Zn+2]` [Zn^2+], the IC50 (SARS-CoV PLP) is listed as 1300 nM and the Ki (3CLPro/Mpro of SARS-CoV) is listed as 1100 nM.

For (−)-gallocatechin gallate, the IC50 (SARS-CoV N protein) is listed as 0.05 µg/mL.

In the case of Epigallocatechin-3-gallate [EGCG], the IC50 [1] is listed as 73000 nM, the “inhibition of the recombinant 3CLpro/Mpro” value [1] is listed as “over 85%” and the “binding affinity to PLP core structure” value (PLP of SARS-CoV-2) is listed as “highest binding affinity”. For the same molecule, the IC50 [2] was 2.47 µg/mL, the IC50 [3] was 1.73 µg/mL and the EC50 (SARS-CoV-2 strain) was 200 nM. The cell viability [4] was “a decrease in viability”.

For N-ethyl-N-phenyl-dithio-carbamate-Zinc, the IC50 (SARS-CoV PLP) is listed as 3300 nM.

For Zinc gluconate, the subjects asymptomatic (common cold) is given as 86%.
